SMILES strings stand for the structures.

The target of this test is recombinant DYRK1A kinase (Homo sapiens (Human), UniProt Q13627). In words: DYRK1A kinase assay (Ser/Thr 18 peptide Z-lyte FRET assay). The class given is biochemical. Particulars: DYRK1A 0.25 μg/mL, ATP 15 μM, Ser/Thr peptide 18 4 μM; one hour at room temperature; 11-point dose-response, duplicate. An outline of the steps: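 Z-lyte FRET assay on Ser/Thr 18 peptide, kinase activity read as coumarin/fluorescein emission ratio; compounds incubated 1 h at room temperature, then development reagent 1 h, in duplicate. Phosphorylated and unphosphorylated peptide served as controls; IC50 by non-linear regression of dose-response curves.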
Broadly, the IC50 is the concentration at which inhibition is half-maximal. `C[C@]1(O)CC[C@H](Nc2nc(N)c3c(-c4ccc5ncn(CC(F)F)c5n4)ccn3n2)CC1` [Compound 986, (1r,4r)-4-((4-Amino-5-(3-(2,2-difluoroethyl)-3H-imidazo[4,5-b]pyridin-5-yl)pyrrolo[2,1-f][1,2,4]triazin-2-yl)amino)-1-methylcyclohexan-1-ol]: the concentration for half-maximal inhibition (IC50) stood at 0.7 nM. In the case of `CNc1nc(N[C@H]2CC[C@H](NC(C)=O)CC2)nn2ccc(-c3ccc4nc(C)n(CC(F)F)c4n3)c12` [Compound 187, N-(trans-4-((5-(3-(2,2-Difluoroethyl)-2-methyl-3H-imidazo[4,5-b]pyridin-5-yl)-4-(methylamino)pyrrolo[2,1-f][1,2,4]triazin-2-yl)amino)cyclohexyl)acetamide], the IC50 amounted to 1.1 nM. Then `CNc1nc(N[C@@H]2CN(C(C)=O)C[C@@H]2F)nn2ccc(-c3ccc4nnn(CC(F)F)c4n3)c12` [Compound 1026, 1-((3R,4S)-3-((5-(3-(2,2-Difluoroethyl)-3H-[1,2,3]triazolo[4,5-b]pyridin-5-yl)-4-(methylamino)pyrrolo[2,1-f][1,2,4]triazin-2-yl)amino)-4-fluoropyrrolidin-1-yl)ethan-1-one], with 0.3 nM. With `CNc1nc(N[C@H]2CCN(C(C)=O)C[C@H]2F)nn2ccc(-c3ccc4nc(C)n(CCF)c4n3)c12` [Compound 1020, 1-((3R,4S)-3-Fluoro-4-((5-(3-(2-fluoroethyl)-2-methyl-3H-imidazo[4,5-b]pyridin-5-yl)-4-(methylamino)pyrrolo[2,1-f][1,2,4]triazin-2-yl)amino)piperidin-1-yl)ethan-1-one] the figure was 2.1 nM. In the case of `CNc1nc(NC2CCC(F)(F)CC2)nn2ccc(-c3ccc4ncn(CC(F)(F)F)c4n3)c12` [Compound 1014, N^2-(4,4-Difluorocyclohexyl)-N^4-methyl-5-(3-(2,2,2-trifluoroethyl)-3H-imidazo[4,5-b]pyridin-5-yl)pyrrolo[2,1-f][1,2,4]triazine-2,4-diamine], the IC50 amounted to 10.1 nM. For `Nc1nc(N[C@H]2CCN(C3COC3)C[C@H]2F)nn2ccc(-c3ccc4ncn(CC(F)F)c4n3)c12` [Compound 990, 5-(3-(2,2-Difluoroethyl)-3H-imidazo[4,5-b]pyridin-5-yl)-N^2-((3R,4S)-3-fluoro-1-(oxetan-3-yl)piperidin-4-yl)pyrrolo[2,1-f][1,2,4]triazine-2,4-diamine], the IC50 stood at 0.6 nM. Then `CNc1nc(N[C@H]2CN(C3COC3)C[C@H]2F)nn2ccc(-c3ccc4nc(C)n(CC(F)F)c4n3)c12` [Compound 199, 5-(3-(2,2-Difluoroethyl)-2-methyl-3H-imidazo[4,5-b]pyridin-5-yl)-N^2-((3S,4R)-4-fluoro-1-(oxetan-3-yl)pyrrolidin-3-yl)-N^4-methylpyrrolo[2,1-f][1,2,4]triazine-2,4-diamine], with 2.4 nM; and `CNc1nc(N[C@@H]2CN(C)C[C@@H]2F)nn2ccc(-c3ccc4nc(C)n(CC(F)F)c4n3)c12` [Compound 198, 5-(3-(2,2-Difluoroethyl)-2-methyl-3H-imidazo[4,5-b]pyridin-5-yl)-N^2-((3R,4S)-4-fluoro-1-methylpyrrolidin-3-yl)-N^4-methylpyrrolo[2,1-f][1,2,4]triazine-2,4-diamine], with 0.6 nM; and `CNc1nc(N[C@H]2CC[C@](C)(O)CC2)nn2ccc(-c3cnc4nc(C)n(CC(F)F)c4c3)c12` [Compound 171, trans-4-((5-(1-(2,2-Difluoroethyl)-2-methyl-1H-imidazo[4,5-b]pyridin-6-yl)-4-(methylamino)pyrrolo[2,1-f][1,2,4]triazin-2-yl)amino)-1-methylcyclohexan-1-ol], with 8 nM. Consider `CNc1nc(N[C@@H]2CCN(C)CC2(F)F)nn2ccc(-c3ccc4ncn(CC(F)(F)F)c4n3)c12` [Compound 1017, (R)—N^2-(3,3-Difluoro-1-methylpiperidin-4-yl)-N^4-methyl-5-(3-(2,2,2-trifluoroethyl)-3H-imidazo[4,5-b]pyridin-5-yl)pyrrolo[2,1-f][1,2,4]triazine-2,4-diamine], for which the IC50 amounted to 1.7 nM. On to `CNc1nc(N[C@H]2CCN(C)CC2(F)F)nn2ccc(-c3ccc4nc(C)n(CC(F)F)c4n3)c12` [Compound 215, (S)—N^2-(3,3-Difluoro-1-methylpiperidin-4-yl)-5-(3-(2,2-difluoroethyl)-2-methyl-3H-imidazo[4,5-b]pyridin-5-yl)-N^4-methylpyrrolo[2,1-f][1,2,4]triazine-2,4-diamine], for which the IC50 came out at 4.4 nM. With `CNc1nc(NC2CCC3(CC2)OCCO3)nn2ccc(-c3ccc4nc(C)n(CC(F)F)c4n3)c12` [Compound 389, 5-(3-(2,2-Difluoroethyl)-2-methyl-3H-imidazo[4,5-b]pyridin-5-yl)-N^4-methyl-N^2-(1,4-dioxaspiro[4.5]decan-8-yl)pyrrolo[2,1-f][1,2,4]triazine-2,4-diamine] the figure was 1.8 nM; with `CCN1CC[C@@H](Nc2nc(NC)c3c(-c4ccc5nc(C)n(CC(F)F)c5n4)ccn3n2)C(F)(F)C1` [Compound 383, (R)-5-(3-(2,2-Difluoroethyl)-2-methyl-3H-imidazo[4,5-b]pyridin-5-yl)-N^2-(1-ethyl-3,3-difluoropiperidin-4-yl)-N^4-methylpyrrolo[2,1-f][1,2,4]triazine-2,4-diamine], 3.5 nM; with `CNc1nc(NC2CC3(CCN(C(C)=O)CC3)C2)nn2ccc(-c3ccc4nc(C)n(CC(F)F)c4n3)c12` [Compound 223, 1-(2-((5-(3-(2,2-Difluoroethyl)-2-methyl-3H-imidazo[4,5-b]pyridin-5-yl)-4-(methylamino)pyrrolo[2,1-f][1,2,4]triazin-2-yl)amino)-7-azaspiro[3.5]nonan-7-yl)ethan-1-one], 1.1 nM. Turning to `CNc1nc(N[C@@H]2[C@@H]3COC[C@@H]32)nn2ccc(-c3ccc4nc(C)n(CC(F)F)c4n3)c12` [Compound 222, N^2-((1R,5S,6s)-3-Oxabicyclo[3.1.0]hexan-6-yl)-5-(3-(2,2-difluoroethyl)-2-methyl-3H-imidazo[4,5-b]pyridin-5-yl)-N^4-methylpyrrolo[2,1-f][1,2,4]triazine-2,4-diamine], the IC50 worked out at 4.1 nM.

As for `CNc1nc(N[C@H]2CC[C@](C)(O)CC2)nn2ccc(-c3ccc4nccn4c3)c12` [Compound 58, trans-4-((5-(Imidazo[1,2-a]pyridin-6-yl)-4-(methylamino)pyrrolo[2,1-f][1,2,4]triazin-2-yl)amino)-1-methylcyclohexan-1-ol], the IC50 came to 170 nM. Then `CNc1nc(N[C@H]2[C@@H]3COC[C@@H]32)nn2ccc(-c3ccc4nc(C)n(CC(F)F)c4n3)c12` [Compound 221, N^2-((1R,5S,6r)-3-Oxabicyclo[3.1.0]hexan-6-yl)-5-(3-(2,2-difluoroethyl)-2-methyl-3H-imidazo[4,5-b]pyridin-5-yl)-N^4-methylpyrrolo[2,1-f][1,2,4]triazine-2,4-diamine], with 1.6 nM; and `Cc1nc2ccc(-c3ccn4nc(N[C@@H]5CN(C6COC6)C[C@@H]5F)nc(N)c34)nc2n1CC(F)(F)F` [Compound 763, N^2-((3R,4S)-4-Fluoro-1-(oxetan-3-yl)pyrrolidin-3-yl)-5-(2-methyl-3-(2,2,2-trifluoroethyl)-3H-imidazo[4,5-b]pyridin-5-yl)pyrrolo[2,1-f][1,2,4]triazine-2,4-diamine], with 1.4 nM. With `CNc1nc(N[C@@H]2CCN(C3COC3)CC2(F)F)nn2ccc(-c3ccc4nnn(CC(F)F)c4n3)c12` [Compound 480, (R)—N^2-(3,3-Difluoro-1-(oxetan-3-yl)piperidin-4-yl)-5-(3-(2,2-difluoroethyl)-3H-[1,2,3]triazolo[4,5-b]pyridin-5-yl)-N^4-methylpyrrolo[2,1-f][1,2,4]triazine-2,4-diamine], the IC50 stood at 1.3 nM. Regarding `Cc1nc2ccc(-c3ccn4nc(N[C@H]5CCN(C6COC6)C[C@H]5F)nc(N)c34)nc2n1CC(F)(F)F` [Compound 780, N^2-((3R,4S)-3-Fluoro-1-(oxetan-3-yl)piperidin-4-yl)-5-(2-methyl-3-(2,2,2-trifluoroethyl)-3H-imidazo[4,5-b]pyridin-5-yl)pyrrolo[2,1-f][1,2,4]triazine-2,4-diamine], the IC50 turned out to be 1.2 nM. With `Cc1nc2ccc(-c3ccn4nc(N[C@H]5CC[C@](C)(O)CC5)nc(N)c34)nc2n1CCF` [Compound 995, (1r,4r)-4-((4-Amino-5-(3-(2-fluoroethyl)-2-methyl-3H-imidazo[4,5-b]pyridin-5-yl)pyrrolo[2,1-f][1,2,4]triazin-2-yl)amino)-1-methylcyclohexan-1-ol] the figure was 0.8 nM; with `CC(=O)N1C[C@H](F)[C@H](Nc2nc(N)c3c(-c4ccc5ncn(CC(F)F)c5n4)ccn3n2)C1` [Compound 987, 1-((3R,4S)-3-((4-Amino-5-(3-(2,2-difluoroethyl)-3H-imidazo[4,5-b]pyridin-5-yl)pyrrolo[2,1-f][1,2,4]triazin-2-yl)amino)-4-fluoropyrrolidin-1-yl)ethan-1-one], 0.8 nM. Then `CNc1nc(N[C@@H]2CCN(C3CC3)C[C@@H]2F)nn2ccc(-c3ccc4nc(C)n(CC(F)F)c4n3)c12` [Compound 377, N^2-((3S,4R)-1-Cyclopropyl-3-fluoropiperidin-4-yl)-5-(3-(2,2-difluoroethyl)-2-methyl-3H-imidazo[4,5-b]pyridin-5-yl)-N^4-methylpyrrolo[2,1-f][1,2,4]triazine-2,4-diamine], with 3.6 nM. As for `CNc1nc(N[C@H]2CC[C@]3(CCO3)CC2)nn2ccc(-c3ccc4nc(C)n(CC(F)F)c4n3)c12` [Compound 227, 5-(3-(2,2-Difluoroethyl)-2-methyl-3H-imidazo[4,5-b]pyridin-5-yl)-N^4-methyl-N^2-((4s,7s)-1-oxaspiro[3.5]nonan-7-yl)pyrrolo[2,1-f][1,2,4]triazine-2,4-diamine], the IC50 stood at 3.3 nM. For `CC(=O)N1C[C@H](F)[C@H](Nc2nc(N)c3c(-c4ccc5nc(C)n(CC(F)(F)F)c5n4)ccn3n2)C1` [Compound 762, 1-((3R,4S)-3-((4-Amino-5-(2-methyl-3-(2,2,2-trifluoroethyl)-3H-imidazo[4,5-b]pyridin-5-yl)pyrrolo[2,1-f][1,2,4]triazin-2-yl)amino)-4-fluoropyrrolidin-1-yl)ethan-1-one], the IC50 was found to be 1.5 nM.

Source of the values: US20240199649A1 (Biosplice Therapeutics, Inc., priority 2022, published 2024).
